Earlier results, collected in patent publication US20090005340A1, “Bioactive Agents Produced By Submerged Cultivation of a Basidiomycete Cell” (MediMush A/S, priority 2005, published 2009).

Tested on: cytochrome P450s (CYPs)

- expression of cytochrome P450s (CYPs): suppress the expression
Substance: Lentinan
